Consider one molecule from article PMC8617031, “Development of a BCL-xL and BCL-2 dual degrader with improved anti-leukemic activity,” (Nature Communications, 2021).

One data set concerns human platelets. Kind of data set: Viability (MTS) of human platelets. It is filed as cell-based. Conditions: Supplementary Fig. 12b. How it is done:
For the viability assays in human platelets, human platelet-rich plasma (PRP) was purchased from Zenbio (cat. no. SER-PRP-SDS). PRP was used for experiments immediately after delivery. PRP was transferred into 50-ml polypropylene tubes, each containing 5 ml acid citrate buffer (cat. no. sc-214744, Santa Cruz Biotechnology). […] After gently mixing the solution, platelets were pelleted by centrifugation at 1200 × g for 10 min. Pelleted platelets were gently washed without disruption in 2 ml HEPES-buffered Tyrode’s solution (10 mM HEPES, 135 mM NaCl, 2.8 mM KCl, 1 mM MgCl2, 2 mM CaCl2, 12 mM NaHCO3, 0.4 mM NaH2PO4, 0.25% BSA and 5.5 mM glucose, pH 7.4; cat. no. PY-921WB, Boston BioProducts) containing 1 µM PGE1 and 0.2 units ml^–1 apyrase. After washing, pellets were slowly resuspended in 10 ml HEPES-buffered Tyrode’s solution containing 1 µM PGE1 and 0.2 units ml–1 apyrase. The number of platelets was counted using a HEMAVET 950FS hematology analyzer (Drew Scientific, Inc.). For viability assays, platelet number was adjusted to 2 × 10^8 per ml in HEPES-buffered Tyrode’s solution containing 1 µM PGE1, 0.2 units ml^–1 apyrase and 10% FBS. […] After 72 h treatment, 200 µl of untreated or treated platelets were plated in each well of 96-well plates, and the viability was measured by MTS assay as described above.

Another data set concerns the target T1, BCL-xL (Homo sapiens, UniProt Q07817).
T1 construct: endogenous in cells
Briefly: BCL-xL degradation by western blot in human platelets. The class given is cell-based. As to conditions: Supplementary Fig. 12a. The protocol:
Cells were collected, washed once with ice-cold phosphate-buffered saline, pH 7.2 (PBS, cat. no. 20012027; Thermo Fisher Scientific) and lysed in RIPA lysis buffer (Cat. No. BP-115DG, Boston Bio Products, Ashland, MA, USA) supplemented with protease and phosphatase inhibitor cocktails (Cat. No. PPC1010, Sigma-Aldrich, St. Louis, MO, USA) through sonication. The samples were centrifuged at 14,000 r.p.m. for 5 min and the supernatants were transferred into a new tube. The protein concentration in the supernatants was determined using the Pierce BCA protein Assay kit (cat. no. 23225, Thermo Fisher Scientific). The protein concentration was normalized, and the samples were reduced in 4× Laemmli’s SDS-sample buffer (cat. no. BP-110R, Boston Bio Products) and denatured at 95 °C for 5 min. […] Following sufficient washing with TBST, the membranes were exposed with chemiluminescent HRP substrate (cat. no. WBKLS0500, MilliporeSigma), and the signal was detected using the ChemiDoc MP Imaging System (Bio-Rad) and quantified using the ImageJ (v1.53a) software from NIH. […]
(In western blotting, separated proteins are transferred to a membrane and probed.)

Another data set has as its system Flag-BCL-2 WT or mutants. Kind of data set: Polyubiquitination assay (Flag IP, HA-Ub blot), BCL-2. The class given is cell-based, human. Conditions: 293T cells, MG132 10 µM pretreatment, 753b 1 uM, 5 h. The source says:
K16-only, K20-only, and K87-only represent that all the surface lysines on BCL-xL are mutated to arginines except K16, K20, and K87, respectively. Representative immunoblots of Flag-BCL-xL WT and mutants are shown in the top panel. […] K17R and K22R represents that K17 and K22 on BCL-2 are respectively mutated to arginine; K17/22R means both K17 and K22 on BCL-2 are mutated to arginine. Representative immunoblots of Flag-BCL-2 WT and mutants are shown in the top panel. The quantification of the relative Flag-BCL-xL or Flag-BCL-2 protein content in the immunoblots is presented as mean values ± s.e.m. (n = 3 biologically independent experiments) in the bottom panel. […] After 36 h, cells were pre-treated with MG132 (10 µM) for 2 h and then treated with or without 753b (0.1 µM for BCL-xL and 1 uM for BCL-2) for 5 h. The Flag-tagged proteins were immunoprecipitated (IP) and immunoblotted with HA or Flag antibody. The input results are shown in Supplementary Fig. 9. Data are a representative of two independent experiments. Source data are provided as a Source data file.
Proteins were extracted by using IP lysis buffer (Cat. No. 87788, Thermal Fisher Scientific) and IP was performed using Anti-FLAG M2 Magnetic Beads (Cat. No. M8823, Sigma-Aldrich) according to the manufacturer’s protocol. […]

T1 sequence (Q07817 whole entry): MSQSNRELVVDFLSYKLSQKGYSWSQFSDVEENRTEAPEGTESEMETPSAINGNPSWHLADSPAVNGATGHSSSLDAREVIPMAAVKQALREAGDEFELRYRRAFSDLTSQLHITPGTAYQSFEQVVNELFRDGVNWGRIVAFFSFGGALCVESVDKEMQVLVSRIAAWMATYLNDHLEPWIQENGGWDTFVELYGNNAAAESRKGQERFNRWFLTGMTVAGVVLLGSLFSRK

For `Cc1ncsc1-c1ccc([C@H](C)NC(=O)[C@@H]2C[C@@H](O)CN2C(=O)[C@@H](NC(=O)CCCCCCC(=O)N2CCN(C[C@]3(C)CCC(c4ccc(Cl)cc4)=C(CN4CCN(c5ccc(C(=O)NS(=O)(=O)c6ccc(N[C@H](CCN7CCOCC7)CSc7ccccc7)c(S(=O)(=O)C(F)(F)F)c6)cc5)CC4)C3)CC2)C(C)(C)C)cc1` [753b], the “toxicity to platelets relative to ABT263” value in the data set with human platelets is “about three-fold less toxic to platelets than ABT263”. On BCL-xL, the “BCL-xL degradation in human platelets (in words)” value was “failed to induce BCL-xL degradation in human platelets”. Besides, the “polyubiquitination of BCL-2 WT and mutants (in words)” value in the data set with Flag-BCL-2 WT or mutants is “induces polyubiquitination of WT and K22R BCL-2, but not K17R and K17/22R BCL-2”.
